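A five-concentration, 48-hour dose response in 96-well plates underlies each endpoint, interpolated linearly between surrounding concentrations. Here, GI50 denotes the concentration required for 50% inhibition of growth. Definition used: TGI = concentration required for complete inhibition of growth.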
Assays:
Assay in all cases: NCI tumour cell line growth inhibition, 48 h
[1] = tested on: NCI-H522 lung
[2] = tested on: RPMI-8226 leukemia
[3] = tested on: 786-0 renal
[4] = tested on: DU-145 prostate
[5] = tested on: M14 melanoma
[6] = tested on: T-47D breast
[7] = tested on: A498 renal
[8] = tested on: CCRF-CEM leukemia
[9] = tested on: UACC-257 melanoma
[10] = tested on: NCI-H226 lung
[11] = tested on: NCI-H23 lung
[12] = tested on: SF-268 CNS
[13] = tested on: SK-OV-3 ovarian
[14] = tested on: MDA-MB-231 breast
[15] = tested on: HOP-92 NSCLC
[16] = tested on: U251 CNS
[17] = tested on: NCI-H460 lung
[18] = tested on: HS 578T breast
[19] = tested on: MDA-MB-435
[20] = tested on: SR leukemia
[21] = tested on: PC-3 prostate
[22] = tested on: SN12C renal
[23] = tested on: HT29 colon
[24] = tested on: SF-295 CNS
[25] = tested on: HCT-116 colon
[26] = tested on: SK-MEL-5 melanoma
[27] = tested on: ACHN renal
[28] = tested on: UO-31 renal
[29] = tested on: OVCAR-5 ovarian
[30] = tested on: MOLT-4 leukemia
[31] = tested on: RXF 393 renal
[32] = tested on: SK-MEL-28 melanoma
[33] = tested on: OVCAR-3 ovarian
[34] = tested on: KM12 colon
[35] = tested on: HL-60(TB) leukemia
[36] = tested on: K-562 leukemia
[37] = tested on: COLO 205 colon
[38] = tested on: EKVX NSCLC
[39] = tested on: MCF7 breast
[40] = tested on: BT-549 breast
[41] = tested on: MALME-3M melanoma
[42] = tested on: A549 NSCLC
[43] = tested on: LOX IMVI melanoma
[44] = tested on: SW-620 colon
[45] = tested on: SNB-75 CNS
[46] = tested on: HCC-2998 colon
[47] = tested on: HOP-62 NSCLC
[48] = tested on: TK-10 renal
[49] = tested on: OVCAR-4 ovarian
[50] = tested on: IGROV1 ovarian
[51] = tested on: SK-MEL-2 melanoma
[52] = tested on: UACC-62 melanoma
[53] = tested on: SF-539 CNS
[54] = tested on: NCI/ADR-RES ovarian
[55] = tested on: HCT-15 colon
[56] = tested on: CAKI-1 renal
[57] = tested on: OVCAR-8 ovarian
[58] = tested on: SNB-19 CNS

O=Cc1cn(Cc2ccccc2)c2ccccc12
GI50 [1]: > 100 µM
TGI [1]: > 100 µM
GI50 [2]: 6.39 µM
TGI [2]: 47.7 µM
GI50 [3]: 33.1 µM
TGI [3]: 97.8 µM
GI50 [4]: > 68.2 µM
TGI [4]: > 100 µM
GI50 [5]: 43.4 µM
TGI [5]: > 100 µM
GI50 [6]: 3.12 µM
TGI [6]: > 100 µM
GI50 [7]: 0.163 µM
TGI [7]: 0.389 µM
GI50 [8]: 41.8 µM
TGI [8]: > 100 µM
GI50 [9]: 3.44 µM
TGI [9]: 19.5 µM
GI50 [10]: 0.916 µM
TGI [10]: 3.72 µM
GI50 [11]: 37.9 µM
TGI [11]: > 100 µM
GI50 [12]: 52.1 µM
TGI [12]: > 100 µM
GI50 [13]: 4.04 µM
TGI [13]: > 100 µM
GI50 [14]: 38.7 µM
TGI [14]: > 100 µM
GI50 [15]: 20.6 µM
TGI [15]: > 100 µM
GI50 [16]: 31.5 µM
TGI [16]: > 100 µM
GI50 [17]: 0.279 µM
TGI [17]: > 100 µM
GI50 [18]: 30.5 µM
TGI [18]: > 100 µM
GI50 [19]: 46.2 µM
TGI [19]: > 100 µM
GI50 [20]: > 35.4 µM
TGI [20]: > 82 µM
GI50 [21]: 35.7 µM
TGI [21]: > 100 µM
GI50 [22]: 49.2 µM
TGI [22]: > 100 µM
GI50 [23]: 61.5 µM
TGI [23]: > 100 µM
GI50 [24]: 5.15 µM
TGI [24]: > 63.4 µM
GI50 [25]: 13.7 µM
TGI [25]: > 100 µM
GI50 [26]: 18.7 µM
TGI [26]: > 70 µM
GI50 [27]: 33.6 µM
TGI [27]: > 100 µM
GI50 [28]: 18.2 µM
TGI [28]: > 100 µM
GI50 [29]: 0.238 µM
GI50 [30]: 21.1 µM
TGI [30]: > 100 µM
GI50 [31]: > 47.7 µM
TGI [31]: 97.7 µM
GI50 [32]: > 57.8 µM
TGI [32]: > 100 µM
GI50 [33]: 21 µM
TGI [33]: > 67.5 µM
GI50 [34]: 53.3 µM
TGI [34]: > 100 µM
GI50 [35]: 16.9 µM
TGI [35]: > 80.5 µM
GI50 [36]: 18.7 µM
TGI [36]: > 100 µM
GI50 [37]: 0.438 µM
TGI [37]: > 32.4 µM
GI50 [38]: 22.8 µM
TGI [38]: > 81 µM
GI50 [39]: 30.7 µM
TGI [39]: > 100 µM
GI50 [40]: 29.2 µM
TGI [40]: > 96.8 µM
GI50 [41]: > 56 µM
TGI [41]: > 100 µM
GI50 [42]: 35 µM
TGI [42]: > 100 µM
GI50 [43]: 24.4 µM
TGI [43]: > 100 µM
GI50 [44]: 45.6 µM
TGI [44]: > 100 µM
GI50 [45]: 27.1 µM
TGI [45]: > 100 µM
GI50 [46]: 21.9 µM
TGI [46]: > 100 µM
GI50 [47]: 21.8 µM
TGI [47]: > 100 µM
GI50 [48]: 0.946 µM
TGI [48]: 9 µM
GI50 [49]: 5.83 µM
TGI [49]: > 100 µM
GI50 [50]: 0.5 µM
TGI [50]: > 38.1 µM
GI50 [51]: 8.62 µM
TGI [51]: 60.6 µM
GI50 [52]: 2.31 µM
TGI [52]: 19.4 µM
GI50 [53]: 43.7 µM
TGI [53]: > 100 µM
GI50 [54]: 35.7 µM
TGI [54]: > 100 µM
GI50 [55]: 52.4 µM
TGI [55]: > 100 µM
GI50 [56]: < 0.0426 µM
TGI [56]: 0.547 µM
GI50 [57]: 43.5 µM
TGI [57]: > 100 µM
GI50 [58]: 75.4 µM
TGI [58]: > 100 µM

— PubChem BioAssay (NCI)
